Each structure is given as a SMILES string.

One series has as its system CD1 mice. Nature of the series: Acute toxicity (LD50), intraperitoneal injection. It counts as in vivo. The settings on record: i.p. injection. The method, then:
All experiments involving animals were performed in accordance with the guidelines set out by the European Union Council Directive 2010/63/EU; the experimental protocols were approved by the Animal Care and Use Committee of the Federal Research Center “Kazan Scientific Center of the Russian Academy of Sciences”. Toxicological experiments were performed using intraperitoneal injection of the various compounds in CD1 mice weighing 20–25 g. Mice were maintained on a 12 h light/dark cycle (light from 7:00 a.m. to 7:00 p.m.) at 20−22 °C and 60−70% relative humidity. Five different doses (determined during preliminary tests) were used with six animals per dose. Animals were observed 14 days after injection, and symptoms of intoxication were recorded. […] LD50 was determined by the method of Weiss. Stock solutions of compounds were prepared in ethanol or water. Compounds were administered intraperitoneally in sterile physiological saline. The concentration of ethanol in physiological saline was 5% vol.

The target of series [1] is T1, hAChE (Homo sapiens, UniProt P22303).
T1 construct: purchased Sigma-Aldrich
T1 sequence (P22303 32-614): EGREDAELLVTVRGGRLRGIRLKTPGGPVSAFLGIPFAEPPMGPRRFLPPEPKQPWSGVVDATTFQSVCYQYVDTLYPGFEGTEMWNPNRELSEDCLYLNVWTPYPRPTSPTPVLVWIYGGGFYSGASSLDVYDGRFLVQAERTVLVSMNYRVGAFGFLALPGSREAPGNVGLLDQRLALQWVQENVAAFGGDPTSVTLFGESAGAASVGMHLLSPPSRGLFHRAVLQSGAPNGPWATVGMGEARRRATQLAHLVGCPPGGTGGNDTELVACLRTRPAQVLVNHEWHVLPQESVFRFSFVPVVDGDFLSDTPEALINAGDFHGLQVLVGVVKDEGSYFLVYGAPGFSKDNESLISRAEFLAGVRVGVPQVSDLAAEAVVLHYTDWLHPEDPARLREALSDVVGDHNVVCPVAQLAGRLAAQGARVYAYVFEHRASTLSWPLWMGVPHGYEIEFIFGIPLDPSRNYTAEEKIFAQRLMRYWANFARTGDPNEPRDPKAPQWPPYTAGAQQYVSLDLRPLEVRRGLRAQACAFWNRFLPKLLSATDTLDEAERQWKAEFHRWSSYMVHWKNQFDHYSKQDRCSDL
Nature of the series: Inhibition constants and inhibition type for hAChE (Dixon and Cornish-Bowden plots). It counts as biochemical. The method, then: (§1) To study the mechanism of hAChE and hBChE inhibition by compound 2c, the inhibition constants (Ki) were determined. Experiments were performed using three different concentrations of acetylthiocholine (ATC) as substrate for hAChE or butyrylthiocholine (BTC) for hBChE. Analysis of Dixon and Cornish-Bowden plots established that hAChE and hBChE inhibition was of mixed type, with Kci (competitive inhibition) and Kui (uncompetitive) components: Kci = […], Kui = 315 ± 95 pM for hAChE (Figure 3A,B), and Kci = 10.1 ± 3.1 µM, Kui = 24 ± 4.6 µM for hBChE (Figure 3C,D).
(§2) The inhibition constants (Ki) for hAChE and hBChE were determined by Ellman’s method at 412 nm and 25 °C in 0.1M sodium phosphate buffer (pH = 8.0) with various substrate (ATC, BTC) concentrations in the range 0.01–0.1 mM, using UV-1800 Shimadzu (Kyoto, Japan) spectrophotometer. The final enzyme concentration in the assays was in the picomolar range. Controls of active enzyme and substrate spontaneous hydrolysis in the absence of an inhibitor were performed for each substrate concentration. Absorbance change was recorded for 5 min. Inhibition constants were determined from Dixon plot and Cornish-Bowden transformation.

For another series, the target named is T2, hBChE (Homo sapiens, UniProt P06276).
T2 construct: hBChE from blood plasma; purchased Sigma-Aldrich; host or cells: human blood plasma
T2 sequence (P06276 29-602): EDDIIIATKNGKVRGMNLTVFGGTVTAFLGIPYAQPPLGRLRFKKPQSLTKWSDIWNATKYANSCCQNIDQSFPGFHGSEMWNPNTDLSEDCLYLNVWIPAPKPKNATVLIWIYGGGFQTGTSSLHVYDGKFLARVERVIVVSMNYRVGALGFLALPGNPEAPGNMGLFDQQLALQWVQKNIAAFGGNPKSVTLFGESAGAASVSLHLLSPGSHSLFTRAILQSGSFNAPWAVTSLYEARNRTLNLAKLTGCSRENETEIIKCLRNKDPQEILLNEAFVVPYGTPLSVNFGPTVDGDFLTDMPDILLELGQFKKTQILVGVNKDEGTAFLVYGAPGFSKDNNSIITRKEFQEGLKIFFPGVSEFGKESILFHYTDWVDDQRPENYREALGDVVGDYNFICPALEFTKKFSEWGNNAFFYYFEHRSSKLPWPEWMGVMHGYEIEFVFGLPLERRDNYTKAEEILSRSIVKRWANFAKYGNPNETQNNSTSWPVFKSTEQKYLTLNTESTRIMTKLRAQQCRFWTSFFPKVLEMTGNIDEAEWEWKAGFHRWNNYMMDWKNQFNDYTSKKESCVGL
Nature of the series: Inhibition constants and inhibition type for hBChE (Dixon and Cornish-Bowden plots). It is filed as biochemical. The method, then: as §1, §2

Series [2] concerns the target T1, hAChE. It counts as in vitro ADME. The settings on record: 0.1 mM, overnight with hAChE, phosphate buffer pH 8.0, 25 °C, NMR. The method, then: There is a possibility that the ester group of the compound 2c can be hydrolyzed by AChE. To test this possibility, the compound 2c (0.1 mM) was incubated overnight with AChE in phosphate buffer (pH 8.0). The same buffer containing compound 2c but without AChE was used as a control. After the end of incubation, the buffer was filtered out of AChE using a centricon-30 ultrafiltration micro-concentrator from Amicon (Millipore Corporation, Billerica, MA, USA) and samples were analyzed by NMR spectroscopy. It was shown that the resonance signals both in the control spectrum and in the spectrum of the residue after AChE treatment are almost the same to those for compound 2c (Supplementary materials, Figures S6, S22 and S41–S44).
The compound 2c was dissolved in ethanol and then in 2 mL of 0.1M sodium phosphate buffer (pH = 8.0) at the final concentration of 0.1 mM. Then, 2.0 units of hAChE were added. The final concentration of ethanol in the buffer was 0.1% vol. The compound 2c was incubated with hAChE overnight at 25 °C. The same volume of buffer containing compound 2c at the concentration of 0.1 mM but without AChE was used as a control. After the end of incubation, the buffer was filtered out of AChE using a centricon-30 ultrafiltration micro-concentrator from Amicon (Millipore Corporation, Billerica, MA, USA). […]

`CCN(CCCCCn1c(C)cc(=O)n(CCCCCN(CC)Cc2cccc(C(=O)OC)c2)c1=O)Cc1cccc(C(=O)OC)c1` [2c, 1,3-Bis[5-(meta-methoxycarbonylbenzylethylamino)pentyl]-6-methyluracil]: the LD50 – broadly, the dose at which mortality reaches 50% – in the series on CD1 mice is 147 mg/kg. Besides, the type of inhibition result on hAChE [1] and at hBChE was “mixed type” each time. The “Kui (uncompetitive)” value stood at 315 ± 95 pM on hAChE [1] (substrate ATC) and 24 ± 4.6 µM at hBChE (substrate BTC). The “stability in the presence of AChE (hydrolysis of ester groups)” value on hAChE [2] was “remains stable in the presence of AChE”.

The values are drawn from PMC9694926, “Novel Uracil-Based Inhibitors of Acetylcholinesterase with Potency for Treating Memory Impairment in an Animal Model of Alzheimer’s Disease” (Molecules, 2022).
